Source: US11142554B2 (MASSACHUSETTS INSTITUTE OF TECHNOLOGY, priority 2015, dated 2021)
Positions of bridges follow the written chain, without caps; N, C: chain ends. Non-standard residues stand in square brackets, D forms with d. Residues, ends and D or L forms follow the SMILES beside them. S5 = C=CCCC[C@](C)(N)C(=O)O; Nle = CCCC[C@H](N)C(=O)O

Tests used:
Mcl-1 [1] = biological target: T1, Mcl-1 (Homo sapiens, UniProt Q07820); assay: receptor | Mcl-1; conditions: read-out: receptor | Mcl-1
Target sequence in this assay (Q07820 whole entry, looked up): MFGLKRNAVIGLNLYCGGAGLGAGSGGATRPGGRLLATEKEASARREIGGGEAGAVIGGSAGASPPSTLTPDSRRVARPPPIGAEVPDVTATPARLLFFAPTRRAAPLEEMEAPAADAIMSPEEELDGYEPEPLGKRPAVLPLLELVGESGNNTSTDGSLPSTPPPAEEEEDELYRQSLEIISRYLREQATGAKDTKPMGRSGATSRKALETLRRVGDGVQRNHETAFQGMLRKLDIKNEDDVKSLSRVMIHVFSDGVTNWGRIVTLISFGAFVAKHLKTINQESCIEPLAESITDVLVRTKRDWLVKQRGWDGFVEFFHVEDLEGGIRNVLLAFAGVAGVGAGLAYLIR

Bfl-1 [2] = biological target: Bfl-1 (Homo sapiens, UniProt Q16548); assay: receptor | Bfl-1
Bcl-w [3] = biological target: Bcl-w (Homo sapiens, UniProt Q92843); assay: receptor | Bcl-w
Bcl-xL [4] = biological target: T2, Bcl-xL (Homo sapiens, UniProt Q07817); assay: receptor | Bcl-xL
Target sequence in this assay (Q07817 whole entry, looked up): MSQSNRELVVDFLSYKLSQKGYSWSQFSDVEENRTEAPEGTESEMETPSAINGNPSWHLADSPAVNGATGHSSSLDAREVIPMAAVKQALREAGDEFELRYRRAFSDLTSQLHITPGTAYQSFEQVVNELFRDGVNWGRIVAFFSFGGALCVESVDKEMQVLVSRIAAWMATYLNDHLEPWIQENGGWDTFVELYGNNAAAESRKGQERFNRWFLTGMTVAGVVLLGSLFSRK

Bcl-2 [5] = biological target: T3, Bcl-2 (Homo sapiens, UniProt P10415); assay: receptor | Bcl-2
Target sequence in this assay (P10415 whole entry, looked up): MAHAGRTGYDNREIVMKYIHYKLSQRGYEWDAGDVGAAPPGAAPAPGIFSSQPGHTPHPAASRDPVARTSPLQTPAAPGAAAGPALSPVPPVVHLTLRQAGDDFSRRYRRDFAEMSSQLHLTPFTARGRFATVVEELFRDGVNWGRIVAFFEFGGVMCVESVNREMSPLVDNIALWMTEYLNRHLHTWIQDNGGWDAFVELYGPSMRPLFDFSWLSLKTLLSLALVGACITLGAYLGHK

Bcl-xL [6] = biological target: T2, Bcl-xL; assay: Fluorescence anisotropy direct binding of N-terminal fluorescein peptides
Target sequence in this assay (Q07817 whole entry): as the sequence (Q07817 whole entry, looked up) above

Bcl-2 [7] = biological target: T3, Bcl-2; assay: as above
Target sequence in this assay (P10415 whole entry): as the sequence (P10415 whole entry, looked up) above

Bcl-w [8] = biological target: T4, Bcl-w (Homo sapiens, UniProt Q92843); assay: as above
T4 sequence (Q92843 1-193): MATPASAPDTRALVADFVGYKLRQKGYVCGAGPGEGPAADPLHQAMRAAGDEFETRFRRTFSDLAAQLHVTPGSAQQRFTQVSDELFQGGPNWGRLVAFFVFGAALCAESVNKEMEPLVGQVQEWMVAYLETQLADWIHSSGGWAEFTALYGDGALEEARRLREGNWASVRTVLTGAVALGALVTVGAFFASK

Bfl-1 [9] = biological target: T5, Bfl-1 (Homo sapiens, UniProt Q16548); assay: as above
T5 sequence (Q16548 1-175): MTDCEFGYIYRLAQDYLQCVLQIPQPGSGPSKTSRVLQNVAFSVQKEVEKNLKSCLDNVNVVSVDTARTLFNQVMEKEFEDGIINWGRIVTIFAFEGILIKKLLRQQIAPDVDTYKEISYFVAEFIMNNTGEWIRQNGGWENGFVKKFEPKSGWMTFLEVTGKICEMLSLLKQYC

Bcl-2/Myc 2924 cells = tested on: Bcl-2/Myc 2924 cells
Method: (§1) A whole-cell BH3 profiling assay was used to test the specificity of our Mcl-1-binding peptides in several cell lines with differing dependencies on Bcl-2, Mcl-1, Bcl-xL, or Bfl-1. In this assay, permeabilized cells were treated with increasing doses of BH3 peptides, and mitochondrial outer membrane permeabilization (MOMP) was monitored using the dye JC-1 (see below). Mcl-1/Myc 2640 is an engineered murine leukemia cell line overexpressing murine Mcl-1 and Myc, and Bcl-2/Myc 2924 is a similarly engineered cell line overexpressing human Bcl-2.
(§2) Assay plates were produced by serial dilution of each peptide from 200 μM to 0.2 nM using 10-fold dilutions in DTEB (Derived from Trehalose Experimental Buffer: 135 mM trehalose, 50 mM KCl, 20 μM EDTA, 20 μM EGTA, 0.1% BSA, 5 mM succinate, 10 mM HEPES-KOH pH 7.5) containing 0.005% w/v digitonin, 10 mM 2-mercaptoethanol, 2 μM JC-1, and 20 mg mL-1 oligomycin. Triplicate wells for each peptide were made for each cell line by adding 15 μL of the peptide dilutions to each well of a black, untreated 384-well plate. Control wells containing no peptide or 20 μM FCCP (carbonyl cyanide-4(trifluoromethoxy) phenylhydrazone, a chemical uncoupler of oxidative phosphorylation) were included for zero and complete depolarization, respectively. Multiple plates were produced from the same stock and frozen at −80 ° C. for later use. Frozen plates were brought to RT prior to use, cells were suspended in DTEB at a density of 1.34×10^6 cells/mL, and 15 μL of cell suspension was added to each well of the dilution series to yield wells ranging from 0.1 nM to 100 μM peptide and 20000 cells/well. Fluorescence of JC-1 aggregates was measured at 590 nm with 545 nm excitation on a Tecan Safire2 at 5 min intervals for 3 h. The area under each signal-vs-time curve was calculated and normalized to the untreated and FCCP values to produce the percent depolarization. Curves were plotted as the log [peptide] vs percent depolarization, with sigmoidal dose—response curves fitted using Graphpad PRISM 6.

MDA-MB-231 cells = tested on: MDA-MB-231 cells
Method: as §1, §2

Mcl-1/Myc 2640 cells = tested on: Mcl-1/Myc 2640 cells
Method: as §1, §2

Pfeiffer cells = conditions: for depolarization response (in words): Pfeiffer
Method: as §1, §2

MEF cells = assay: Lactate dehydrogenase (LDH) release assay, non-specific cell lysis; assay type: cell-based
Description: FIG. 5|Results of studies assessing non-specific cell-lysis by internally cross-linked peptides. Lactate dehydrogenase release assays (LDH) identified membrane-disruptive peptides 3 (SEQ ID NO:9) and 7 (SEQ ID NO:7); tested in MEF cells. Peptides 7, 10, 3, and 11-20 are SEQ ID NOs: 7, 8, 9, and 10-19 respectively.
Additional studies examined the non-specific cell lysis activity of peptide 3 (SEQ ID NO:9) (M1 SAHBd) and certain sequence variants of peptide 3 (SEQ ID NO:9) (M1 SAHBd).

Mcl-1 [10] = biological target: T1, Mcl-1; assay: IC50 (nM)
Description: Table printed on a drawing sheet, FIG. 8
Head of the field: IC50 (nM)
The patent's description of the figure: FIG. 8|Results of studies assessing cell permeability of various internally cross-linked peptides. Stapled peptides based on MB2 lead peptide are shown. […] MB2 (SEQ ID NO:23); B1 SAHBa (SEQ ID NO:24); B1 SAHBf (SEQ ID NO:25); B1 DAHBd (SEQ ID NO:26); B2 SAHBd (SEQ ID NO:27); B3 SAHBd (SEQ ID NO:28); B1 SAHBg (SEQ ID NO:29); B1 SAHBh (SEQ ID NO:30).

Mcl-1 [11] = biological target: T1, Mcl-1; assay: Fluorescence anisotropy direct binding of N-terminal fluorescein peptides; conditions: 23-residue peptide with N-terminal fluorescein
Target sequence in this assay (Q07820 whole entry): as the sequence (Q07820 whole entry, looked up) above

[12] = parent: Bim for Bim_A2eT, Bim_A2eT for its point mutants, A12/B3 for MS1/MS2

CC[C@H](C)[C@H](NC(=O)[C@H](CCCNC(=N)N)NC(=O)[C@H](CCCNC(=N)N)NC(=O)[C@H](CC(C)C)NC(=O)CNC(=O)[C@H](CCC(N)=O)NC(=O)[C@@H](NC(=O)[C@@H](NC(=O)[C@H](Cc1c[nH]c2ccccc12)NC(=O)[C@@H](NC(=O)[C@H](CCC(=O)O)NC(=O)[C@@H]1CCCN1C(=O)[C@@H](N)CCCNC(=N)N)[C@@H](C)CC)[C@@H](C)CC)[C@@H](C)O)C(=O)NCC(=O)N[C@@H](CC(=O)O)C(=O)N[C@@H](CCC(=O)O)C(=O)N[C@@H](Cc1ccccc1)C(=O)N[C@@H](CC(N)=O)C(=O)N[C@@H](C)C(=O)N[C@@H](Cc1ccc(O)cc1)C(=O)N[C@@H](Cc1ccc(O)cc1)C(=O)N[C@@H](C)C(=O)N[C@@H](CCCNC(=N)N)C(N)=O [Bim_A2eT_E2gG]
Kd (Mcl-1 [1]): 1.6 ± 0.57 nM | Kd (Bfl-1 [2]): 250 ± 63 nM | Kd (Bcl-w [3]): 94 ± 36 nM | Kd (Bcl-xL [4]): 37 ± 7 nM | Kd (Bcl-2 [5]): 150 ± 27 nM

CC[C@H](C)[C@H](NC(=O)[C@H](CCC(=O)O)NC(=O)[C@H](CC(=O)O)NC(=O)CNC(=O)[C@H](CC(C)C)NC(=O)[C@H](CCCNC(=N)N)NC(=O)[C@H](CCC(N)=O)NC(=O)[C@H](CC(C)C)NC(=O)[C@H](CO)NC(=O)[C@H](CCC(N)=O)NC(=O)[C@@H](NC(=O)[C@H](CC(C)C)NC(=O)[C@H](Cc1c[nH]c2ccccc12)NC(=O)[C@@H](NC(=O)[C@H](CCC(=O)O)NC(=O)[C@@H]1CCCN1C(=O)[C@H](CCCNC(=N)N)NC(C)=O)[C@@H](C)CC)[C@@H](C)O)C(=O)N[C@@H](CC(N)=O)C(=O)N[C@@H](C)C(=O)N[C@@H](Cc1ccc(O)cc1)C(=O)N[C@@H](Cc1ccc(O)cc1)C(=O)N[C@@H](C)C(=O)N[C@@H](CCCNC(=N)N)C(N)=O [MS2]
binding affinity to Bcl-xL (in words) (Bcl-xL [6]): micromolar affinity | reduction in Bcl-xL binding relative to the peptide without the mutation (Bcl-xL [6]; [12]): ~100 fold | binding affinity to Bcl-2 (in words) (Bcl-2 [7]): micromolar affinity | reduction in Bcl-2 binding relative to the peptide without the mutation (Bcl-2 [7]; [12]): ~100 fold | binding affinity to Bcl-w (in words) (Bcl-w [8]): hundred-nanomolar range | reduction in Bcl-w binding relative to the peptide without the mutation (Bcl-w [8]; [12]): ~10 fold | binding affinity to Bfl-1 (in words) (Bfl-1 [9]): micromolar affinity | reduction in Bfl-1 binding relative to the peptide without the mutation (Bfl-1 [9]; [12]): ~100 fold | EC50 (Bcl-2/Myc 2924 cells): > 100000 nM | EC50 (MDA-MB-231 cells): > 100000 nM | EC50 (Mcl-1/Myc 2640 cells): 700 nM | EC50 (Pfeiffer cells): > 100000 nM

CC[C@H](C)[C@H](NC(=O)[C@H](CCC(=O)O)NC(=O)[C@H](CC(=O)O)NC(=O)CNC(=O)[C@H](CC(C)C)NC(=O)[C@H](CCCNC(=N)N)NC(=O)[C@H](CCC(N)=O)NC(=O)[C@H](CC(C)C)NC(=O)[C@H](Cc1c[nH]cn1)NC(=O)[C@H](CCC(N)=O)NC(=O)[C@@H](NC(=O)[C@H](CC(C)C)NC(=O)[C@H](Cc1c[nH]c2ccccc12)NC(=O)[C@@H](NC(=O)[C@H](CCC(=O)O)NC(=O)[C@@H]1CCCN1C(=O)[C@H](CCCNC(=N)N)NC(C)=O)[C@@H](C)CC)[C@@H](C)O)C(=O)N[C@@H](CC(N)=O)C(=O)N[C@@H](C)C(=O)N[C@@H](Cc1ccc(O)cc1)C(=O)N[C@@H](Cc1ccc(O)cc1)C(=O)N[C@@H](C)C(=O)N[C@@H](CCCNC(=N)N)C(N)=O [MS3]
binding affinity to Bcl-xL (in words) (Bcl-xL [6]): micromolar affinity | binding affinity to Bcl-2 (in words) (Bcl-2 [7]): micromolar affinity | binding affinity to Bcl-w (in words) (Bcl-w [8]): several-hundred nanomolar affinity | binding affinity to Bfl-1 (in words) (Bfl-1 [9]): several-hundred nanomolar affinity | depolarization response (in words) (Pfeiffer cells): stronger response in Pfeiffer than MS1 or MS2

CCCC[C@H](NC(=O)[C@H](Cc1c[nH]c2ccccc12)NC(=O)[C@@H](NC(C)=O)[C@@H](C)CC)C(=O)N[C@H](C(=O)N[C@@H](CCC(N)=O)C(=O)NCC(=O)N[C@@H](CC(C)C)C(=O)N[C@@H](CCCNC(=N)N)C(=O)N[C@@]1(C)CCCC=CCCC[C@@](C)(C(=O)N[C@H](C(=O)N[C@@H](CC(N)=O)C(=O)N[C@@H](C)C(=O)N[C@@H](Cc2ccc(O)cc2)C(=O)N[C@@H](Cc2ccc(O)cc2)C(=O)N[C@@H](C)C(=O)N[C@@H](CCCNC(=N)N)C(=O)N[C@@H](CCCNC(=N)N)C(N)=O)[C@@H](C)CC)NC(=O)[C@H](CC(=O)O)NC(=O)CNC(=O)[C@H](CC(C)C)NC1=O)[C@@H](C)O [peptide 7, IWNleTQGLRXLGDXINAYYARR] (Ac-IW[Nle]TQGLR[S5]LGD[S5]INAYYARR-NH2; staple 9-13; N-terminus assumed)
LDH release, membrane disruption (in words) (MEF cells): membrane-disruptive

IWFAQEIDRIGDEVNAYYARR (See specification as filed for detailed description of substitutions and preferred embodiments) [B1, native, non-stapled B1 peptide]
IC50 (Mcl-1 [10]): 90 nM

RPEIWITQGLRRIGDEFNAYYAR [Bim_A2eT_E2gG]
depolarization response (in words) (Bcl-2/Myc 2924 cells; Bcl-2/Myc 2924): depolarization response intermediate to that of Bim and MS1 | depolarization response (in words) (MDA-MB-231 cells; MDA-MB-231): depolarization response intermediate to that of Bim and MS1 | depolarization response (in words) (Mcl-1/Myc 2640 cells; Mcl-1/Myc 2640): strong depolarization response | depolarization response (in words) (Pfeiffer cells): depolarization response intermediate to that of Bim and MS1

RPEIWLGQSLQRLGDEINAYYAR [B3, Bim-BH3 variant clone from yeast surface display library]
binding preference among KSBcl-2 and five human Bcl-2 family proteins (Mcl-1 [11]): bound to KSBci-2 and Mcl-1 in preference to Bcl-2, Bfl-1, Bcl-w, and to a lesser extent Bcl-xL

RPEIWMGQGLRRLGDEINAYYAR [A12, Bim-BH3 variant clone from yeast surface display library]
binding preference among KSBcl-2 and five human Bcl-2 family proteins (Mcl-1 [11]): bound to KSBci-2 and Mcl-1 in preference to Bcl-2, Bfl-1, Bcl-w, and to a lesser extent Bcl-xL
